Measurements published in ChEMBL document CHEMBL1128894, “Enzymatic cyclization of nicotinamide adenine dinucleotide phosphate (NADP)” (Bioorg Med Chem Lett, 1995).

Species on record: Rattus norvegicus
Assay: Effective concentration for calcium mobilization (Ca 2+ release) in rat brain microsomes
Type: functional

EC50 [µM]	Structure (SMILES)
9.2	N=c1c2ncn3c2ncn1[C@@H]1O[C@H](COP(=O)(O)OP(=O)(O)OC[C@H]2O[C@@H]3[C@H](OP(=O)(O)O)[C@@H]2O)[C@@H](O)[C@H]1O
22	N=c1c2ncn3c2ncn1[C@@H]1O[C@H](COP(=O)(O)OP(=O)(O)OC[C@H]2OC3[C@H](O)[C@@H]2O)[C@@H](O)[C@H]1O
0.1	O=P(O)(O)O[C@@H]1[C@H](O)[C@H](O)[C@@H](OP(=O)(O)O)[C@H](OP(=O)(O)O)[C@H]1O [INS(1,4,5)P3]
